Results as given in the supplement of paper PMC10307832.

Columns and labels:
Experiment in all cases: relative viability (nuclei count vs DMSO), 5 days (fraction); higher = more cells survive
[1] = compound: CC1=CC=C(C=C1)C(=O)CN2C3=C(CCCC3)SC2=N [Pifithrin_alpha] + CC(C)C[C@H](NC(=O)[C@H](Cc1ccccc1)NC(=O)c1cnccn1)B(O)O [Bortezomib] (partner 0.002 µM)
Summary of the method: (§1)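 Lung cancer cell lines in 1536-well plates were dosed by pin tool the day after seeding, either with one drug alone or with a fixed anchor-drug dose plus five library-drug doses (not always all listed) in √10 steps. After 5 days, cells were fixed and their nuclei stained in one step (final 0.05% Triton X-100, 1% formaldehyde, 1 ug/ml Hoechst), then counted on 4× images. Relative viability is the nuclei count in treated wells divided by that in vehicle wells. Values are medians of duplicate plates.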

[2] = compound: CNC(=O)c1ccccc1Sc1ccc2c(/C=C/c3ccccn3)n[nH]c2c1 [Axitinib] + O=C(c1cc(Cc2n[nH]c(=O)c3ccccc23)ccc1F)N1CCN(C(=O)C2CC2)CC1 [Olaparib] (partner 8 µM)
Summary of the method: as §1

[3] = compound: CNC(=O)c1ccccc1Sc1ccc2c(/C=C/c3ccccn3)n[nH]c2c1 [Axitinib] + C[C@]1(O)C[C@@H](c2nc(-c3ccc4ccc(-c5ccccc5)nc4c3)c3c(N)nccn32)C1 [Linsitinib] (partner 1 µM)
Summary of the method: as §1

[4] = compound: CNC(=O)c1ccccc1Sc1ccc2c(/C=C/c3ccccn3)n[nH]c2c1 [Axitinib] + COc1cccc2cc(-c3nc([C@H]4CC[C@H](C(=O)O)CC4)n4ncnc(N)c34)[nH]c12 [OSI-027] (partner 0.5 µM)
Summary of the method: as §1

NCI-H650
relative viability ([1]; first compound 3.162 µM): 1 | relative viability ([1]; first compound 10 µM): 0.804 | relative viability ([1]; first compound 31.62 µM): 0.51 | relative viability ([1]; first compound 100 µM): 0.725 | relative viability ([2]; first compound 0.005 µM): 0.403 | relative viability ([2]; first compound 0.01581 µM): 0.389 | relative viability ([2]; first compound 0.05 µM): 0.394 | relative viability ([2]; first compound 0.1581 µM): 0.406 | relative viability ([2]; first compound 0.5 µM): 0.444 | relative viability ([3]; first compound 0.005 µM): 0.969 | relative viability ([3]; first compound 0.01581 µM): 0.866 | relative viability ([3]; first compound 0.05 µM): 0.916 | relative viability ([3]; first compound 0.1581 µM): 0.713 | relative viability ([3]; first compound 0.5 µM): 0.759 | relative viability ([4]; first compound 0.005 µM): 0.533 | relative viability ([4]; first compound 0.01581 µM): 0.486 | relative viability ([4]; first compound 0.05 µM): 0.517 | relative viability ([4]; first compound 0.1581 µM): 0.571 | relative viability ([4]; first compound 0.5 µM): 0.584
